Assay results reported in ChEMBL document CHEMBL1201862, “PubChem BioAssay data set” (2004).
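In this assay, cells in 96-well plates receive the compound at five concentrations for 48 hours. Endpoints are linearly interpolated between the surrounding concentrations. GI50 = concentration required for 50% inhibition of growth.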 The source made the active and inactive calls. No stated cut-off is given here; in the data, active = GI50 up to about 1.1 µM and inactive = higher.

What was measured:
Experiment in all cases: NCI anticancer screen, dose series, 48 h
MCF7 = tested on: MCF7
IGROV-1 = tested on: IGROV-1
K562 = tested on: K562
MDA-MB-435 = tested on: MDA-MB-435
NCI-H460 = tested on: NCI-H460
UACC-257 = tested on: UACC-257
SF-295 = tested on: SF-295
SK-OV-3 = tested on: SK-OV-3
HOP-92 = tested on: HOP-92
Malme-3M = tested on: Malme-3M
EKVX = tested on: EKVX
OVCAR-8 = tested on: OVCAR-8
HCC 2998 = tested on: HCC 2998
SK-MEL-28 = tested on: SK-MEL-28
SW-620 = tested on: SW-620
KM12 = tested on: KM12
Hs-578T = tested on: Hs-578T
CCRF-CEM = tested on: CCRF-CEM
HCT-116 = tested on: HCT-116
SF-539 = tested on: SF-539

Measured: GI50

CN(C)Cc1cc(C(=O)O)cc(CN(C)C)c1O
inactive: MCF7 > 100 µM | IGROV-1 > 100 µM | K562 > 100 µM | MDA-MB-435 > 100 µM | NCI-H460 > 100 µM | UACC-257 > 100 µM | SF-295 > 100 µM | SK-OV-3 > 100 µM | HOP-92 > 100 µM | Malme-3M > 100 µM | EKVX > 100 µM | OVCAR-8 > 100 µM | HCC 2998 > 100 µM | SK-MEL-28 > 100 µM | SW-620 > 100 µM | KM12 > 100 µM | Hs-578T > 100 µM | CCRF-CEM > 100 µM | HCT-116 > 100 µM

CC1=NN(c2nc(N)nc(/C(C#N)=C\C3COc4ccccc4C3=O)n2)C(C)(C)C1 (stereo not drawn)
inactive: MCF7 32.4 µM | IGROV-1 32.7 µM | SF-539 26.2 µM | K562 32.1 µM | MDA-MB-435 32.1 µM | NCI-H460 26.9 µM | UACC-257 51.4 µM | SF-295 31.3 µM | SK-OV-3 25.8 µM | HOP-92 36.5 µM | EKVX 22.5 µM | OVCAR-8 25.6 µM | HCC 2998 30.4 µM | SK-MEL-28 21.6 µM | SW-620 30.7 µM | KM12 36.7 µM | Hs-578T 24 µM | CCRF-CEM 1.9 µM | HCT-116 20.6 µM

NCCCCN(CCCN)C(=O)c1ccccc1
inactive: MCF7 > 100 µM | IGROV-1 > 100 µM | SF-539 > 100 µM | K562 > 100 µM | MDA-MB-435 > 100 µM | NCI-H460 > 100 µM | UACC-257 > 100 µM | SF-295 > 100 µM | SK-OV-3 > 100 µM | HOP-92 > 100 µM | EKVX > 100 µM | OVCAR-8 > 100 µM | HCC 2998 > 100 µM | SK-MEL-28 > 100 µM | SW-620 > 100 µM | KM12 > 100 µM | Hs-578T > 100 µM | CCRF-CEM > 100 µM | HCT-116 > 100 µM

CCc1[nH]c(=O)nc(N)c1-c1ccc(N2CCCCC2)c([N+](=O)[O-])c1
inactive: MCF7 > 100 µM | IGROV-1 > 100 µM | SF-539 > 100 µM | K562 > 100 µM | MDA-MB-435 > 100 µM | NCI-H460 > 100 µM | UACC-257 > 100 µM | SF-295 > 100 µM | SK-OV-3 > 100 µM | HOP-92 > 100 µM | EKVX > 100 µM | OVCAR-8 > 100 µM | HCC 2998 > 100 µM | SK-MEL-28 > 100 µM | SW-620 > 100 µM | KM12 > 100 µM | Hs-578T 53.2 µM | CCRF-CEM > 100 µM | HCT-116 > 100 µM

O=C(OCc1ccccc1)N(CCCCN(CCCNC(=O)C(F)(F)F)C(=O)OCc1ccccc1)CCCNC(=O)C(F)(F)F
inactive: MCF7 > 100 µM | IGROV-1 > 100 µM | SF-539 > 100 µM | K562 > 100 µM | MDA-MB-435 > 100 µM | NCI-H460 > 83.6 µM | UACC-257 > 100 µM | SF-295 > 100 µM | SK-OV-3 > 100 µM | HOP-92 > 100 µM | EKVX > 100 µM | OVCAR-8 > 100 µM | HCC 2998 > 100 µM | SK-MEL-28 > 100 µM | SW-620 > 100 µM | KM12 > 100 µM | Hs-578T > 100 µM | CCRF-CEM > 100 µM | HCT-116 > 100 µM

COc1ccc2oc(=N)c(C(=O)Nc3ccccn3)cc2c1
inactive: MCF7 35.1 µM | IGROV-1 53.6 µM | K562 > 100 µM | MDA-MB-435 > 100 µM | NCI-H460 > 100 µM | UACC-257 > 100 µM | SK-OV-3 > 100 µM | HOP-92 > 100 µM | Malme-3M 61.2 µM | EKVX 62.4 µM | OVCAR-8 > 100 µM | HCC 2998 > 100 µM | SK-MEL-28 > 100 µM | SW-620 > 100 µM | KM12 > 100 µM | Hs-578T > 100 µM | CCRF-CEM > 100 µM | HCT-116 > 100 µM
